Read-outs that look alike come from different tables or passages of the source. Where a SMILES comes first, the peptide text is derived from it. Bridges are numbered along the chain shown (N, C = ends). [ ]: non-standard residue; d: D form. The star is where a group is joined. DOTA = O=C(O)CN1CCN(CC(=O)O)CCN(CC(=O)*)CCN(CC(=O)O)CC1; Hyp = O=C(O)[C@@H]1C[C@@H](O)CN1; NMeF = CN[C@@H](Cc1ccccc1)C(=O)O; hArg = N=C(N)NCCCC[C@H](N)C(=O)O; Pentanoyl(4-Me) = CC(C)CCC(=O)*; Cha = N[C@@H](CC1CCCCC1)C(=O)O; Cit = NC(=O)NCCC[C@H](N)C(=O)O; NMeL = CN[C@@H](CC(C)C)C(=O)O; Nle = CCCC[C@H](N)C(=O)O; Nva = CCC[C@H](N)C(=O)O; Hexanoyl = CCCCCC(=O)*; Pentanoyl = CCCCC(=O)*; Aib = CC(C)(N)C(=O)O Bounds are passed on as bounds.

One test deals with T1, human uPAR (uPAR-Fc) (Homo sapiens, UniProt Q03405).
T1 construct: comprising amino acids Leu23-Arg303 according to UniProt entry Q03405.1; purchased R&D Systems 10378-UK-100
T1 sequence (Q03405 23-303): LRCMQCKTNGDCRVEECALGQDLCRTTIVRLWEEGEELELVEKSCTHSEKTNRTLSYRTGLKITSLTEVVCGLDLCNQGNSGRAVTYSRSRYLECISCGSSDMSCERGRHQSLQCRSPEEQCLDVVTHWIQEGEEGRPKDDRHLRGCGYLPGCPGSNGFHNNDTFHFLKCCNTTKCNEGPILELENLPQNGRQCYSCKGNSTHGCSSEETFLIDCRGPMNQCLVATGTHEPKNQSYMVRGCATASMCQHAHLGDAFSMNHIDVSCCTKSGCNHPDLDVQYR
The test is described as follows: Surface plasmon resonance (SPR) assay, single cycle kinetics. It is filed as binding. Conditions: pKD category for uPAR SPR activity assay, uPAR-Fc on Protein A-Chip, 25°C; for Kd: read-out: pKD CAT (converted). Summed up: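 uPAR-Fc (Leu23-Arg303 extracellular domains, human IgG1 Fc) captured on Protein A chip to ~2000 RU; single-cycle kinetics at 25°C in HEPES running buffer pH 7.4 with 0.1% DMSO. KD from double-referenced sensorgrams fitted to 1:1 Langmuir model, reported as pKD.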
(Surface plasmon resonance follows binding to a sensor surface in real time, without labels.)

In test [1] the target is T2, uPAR-expressing HEC-265 human endometrial adenocarcinoma cells (Homo sapiens, UniProt Q03405).
T2 construct: Cell surface uPAR-expressing HEC-265 human endometrial adenocarcinoma cells; host or cells: HEC-265
T2 sequence (Q03405 23-335): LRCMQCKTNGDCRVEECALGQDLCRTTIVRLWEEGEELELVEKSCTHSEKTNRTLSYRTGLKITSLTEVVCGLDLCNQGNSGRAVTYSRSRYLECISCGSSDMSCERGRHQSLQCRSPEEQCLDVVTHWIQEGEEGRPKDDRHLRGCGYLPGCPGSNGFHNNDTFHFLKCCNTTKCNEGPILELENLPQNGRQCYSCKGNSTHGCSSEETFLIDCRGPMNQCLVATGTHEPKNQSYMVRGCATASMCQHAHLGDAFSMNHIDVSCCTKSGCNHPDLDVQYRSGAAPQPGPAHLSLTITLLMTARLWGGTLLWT
Put plainly: Competitive FACS binding assay. Conditions: pIC50 category of FACS binding. A digest of the protocol: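 HEC-265 cells incubated 1 h at 4 °C with 10 nM biotinylated uPAR peptide tracer plus increasing test compound, then stained with APC-streptavidin on ice. Median APC fluorescence by flow cytometry; 4PL fit gives pIC50.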

Broadly, the IC50 is the concentration needed to halve the response being measured. As for `CC[C@H](C)[C@@H]1NC(=O)[C@@H]2C[C@@H](O)CN2C(=O)[C@@H]2CCCN2C(=O)[C@H](Cc2ccccc2)NC(=O)[C@H](Cc2ccc(O)cc2)NC(=O)[C@H](CCC(N)=O)NC(=O)[C@H](CCCCNC(=N)N)NC(=O)[C@@H](NC(=O)CCC(C)C)CSSC[C@@H](C(N)=O)NC(=O)[C@H](CC(C)C)NC1=O` [UPAR-167, iHex-[Cys-Har-Gln-Tyr-Phe-Pro-Hyp-Ile-Leu-Cys]-NH2] ({Pentanoyl(4-Me)}-C[hArg]QYFP[Hyp]ILC-NH2; disulfide 1-10), on human uPAR (uPAR-Fc), the Kd was below 1.58 nM. Also, in test [1], the IC50 is at most 10 nM.

Consider `CC[C@H](C)[C@@H]1NC(=O)[C@H](C)NC(=O)[C@@H]2CCCN2C(=O)[C@H](Cc2ccccc2)NC(=O)[C@H](Cc2ccc(O)cc2)NC(=O)[C@H](CCSC)NC(=O)[C@H](CCCNC(=N)N)NC(=O)[C@@H](NC(=O)[C@H](CC(C)C)NC(=O)[C@H](CC(=O)O)NC(C)=O)CSSC[C@@H](C(N)=O)NC(=O)[C@H](CC(C)C)NC1=O` [UPAR-341, Ac-Asp-Leu-[Cys-Arg-Met-Tyr-Phe-Pro-Ala-Ile-Leu-Cys]-NH2] (Ac-DLCRMYFPAILC-NH2; disulfide 3-12), for which the Kd on human uPAR (uPAR-Fc) was below 1.58 nM. This compound gave an IC50 in test [1] of at most 10 nM.

For the compound “Pent-[Cys-Cit-Lys(InDOTA-PEG12)-Tyr-Phe-Pro-Hyp-Ile-Nva-Cys]-NH2 (Pentanoyl-C[Cit]KYFP[Hyp]I[Nva]C-NH2; disulfide 1-10; not fully specified (residue 3); printed as Pent-[Cys-Cit-Lys(InDOTA-PEG12)-Tyr-Phe-Pro-Hyp-Ile-Nva-Cys]-NH2; also: In(III) complexed by DOTA) [UPAR-404]”, the “pKD CAT” value in the test with human uPAR (uPAR-Fc) (single cycle kinetics) is “A (pKD values ≥ 8.8)”. Further, the “pIC50 CAT” value in test [1] is reported as “A (pIC50 values ≥8.0)”.

Turning to `CCCCC(=O)N[C@H]1CSSC[C@@H](C(N)=O)NC(=O)[C@H](CCC)NC(=O)[C@H]([C@@H](C)CC)NC(=O)C(C)(C)NC(=O)[C@@H]2CCCN2C(=O)[C@H](Cc2ccccc2)NC(=O)[C@H](Cc2ccc(O)cc2)NC(=O)[C@H](CCCCNC(=O)CN2CCN(CC(=O)O)CCN(CC(=O)O)CCN(CC(=O)O)CC2)NC(=O)[C@H](CCCNC(N)=O)NC1=O` [UPAR-299, Pent-[Cys-Cit-Lys(DOTA)-Tyr-Phe-Pro-Aib-Ile-Nva-Cys]-NH2] (Pentanoyl-C[Cit]K(DOTA)YFP[Aib]I[Nva]C-NH2; disulfide 1-10), the Kd at human uPAR (uPAR-Fc) is below 1.58 nM. The half-maximal inhibitory concentration (IC50) in test [1] was at most 10 nM.

In the case of `CCCCC(=O)N[C@H]1CSSC[C@@H](C(N)=O)NC(=O)[C@H](CCC)NC(=O)[C@H]([C@@H](C)CC)NC(=O)[C@H](CO)NC(=O)[C@@H]2CCCN2C(=O)[C@H](Cc2ccccc2)NC(=O)[C@H](Cc2ccc(O)cc2)NC(=O)[C@H](CCC(N)=O)NC(=O)[C@H](CCCNC(=N)N)NC1=O` [UPAR-154, Pent-[Cys-Arg-Gln-Tyr-Phe-Pro-Ser-Ile-Nva-Cys]-NH2] (Pentanoyl-CRQYFPSI[Nva]C-NH2; disulfide 1-10), the Kd on human uPAR (uPAR-Fc) was below 1.58 nM. Moreover, in test [1], the IC50 is at most 10 nM.

In the case of `CCCCC(=O)N[C@H]1CSSC[C@@H](C(N)=O)NC(=O)[C@H](CCC)NC(=O)[C@H]([C@@H](C)CC)NC(=O)[C@@H]2C[C@@H](O)CN2C(=O)[C@@H]2CCCN2C(=O)[C@H](Cc2ccccc2)N(C)C(=O)[C@H](Cc2ccc(O)cc2)NC(=O)[C@H](CCCCNC(=O)CN2CCN(CC(=O)O)CCN(CC(=O)O)CCN(CC(=O)O)CC2)NC(=O)[C@H](CCCNC(N)=O)NC1=O` [UPAR-398, Pent-[Cys-Cit-Lys(DOTA)-Tyr-Nmf-Pro-Hyp-Ile-Nva-Cys]-NH2] (Pentanoyl-C[Cit]K(DOTA)Y[NMeF]P[Hyp]I[Nva]C-NH2; disulfide 1-10), the Kd at human uPAR (uPAR-Fc) (single cycle kinetics) was above 100 nM. This compound also had an IC50 in test [1] of at least 126 nM.

For the compound `CCCCC(=O)N[C@H]1CSSC[C@@H](C(N)=O)NC(=O)[C@H](CCC)NC(=O)[C@H]([C@@H](C)CC)NC(=O)[C@@H]2CCCN2C(=O)[C@@H]2CCCN2C(=O)[C@H](Cc2ccccc2)NC(=O)[C@H](Cc2ccc(O)cc2)NC(=O)[C@H](CCCCNC(=O)CN2CCN(CC(=O)O)CCN(CC(=O)O)CCN(CC(=O)O)CC2)NC(=O)[C@H](CCCNC(N)=O)NC1=O` [UPAR-473, Pent-[Cys-Cit-Lys(DOTA)-Tyr-Phe-Pro-Pro-Ile-Nva-Cys]-NH2] (Pentanoyl-C[Cit]K(DOTA)YFPPI[Nva]C-NH2; disulfide 1-10), the Kd on human uPAR (uPAR-Fc) (single cycle kinetics) was below 1.58 nM. Further, the half-maximal inhibitory concentration (IC50) in test [1] is at most 10 nM.

Turning to `CCCCC(=O)N[C@H]1CSSC[C@@H](C(N)=O)NC(=O)[C@H](CCC)NC(=O)[C@H]([C@@H](C)CC)NC(=O)[C@@H](CCC(=O)O)NC(=O)[C@@H]2CCCN2C(=O)[C@H](Cc2ccccc2)NC(=O)[C@H](Cc2ccc(O)cc2)NC(=O)[C@H](CCC(N)=O)NC(=O)[C@H](CCCNC(=N)N)NC1=O` [UPAR-436, Pent-[Cys-Arg-Gln-Tyr-Phe-Pro-glu-Ile-Nva-Cys]-NH2] (Pentanoyl-CRQYFP[dE]I[Nva]C-NH2; disulfide 1-10), on human uPAR (uPAR-Fc) (single cycle kinetics), the Kd is 10 to 100 nM. In test [1], this compound showed a concentration for half-maximal inhibition (IC50) of 12.6 to 31.6 nM.

Consider “Pent-[Cys-Cit-Lys(GdDOTA)-Mpa-Phe-Pro-Hyp-Ile-Nva-Cys]-NH2 [UPAR-251]”, for which the “pKD CAT” value at human uPAR (uPAR-Fc) is reported as “A (pKD values ≥ 8.8)”. For the same compound, the “pIC50 CAT” value in test [1] is “A (pIC50 values ≥8.0)”.

In the case of `CCCC[C@@H]1NC(=O)[C@H](CCCNC(=N)N)NC(=O)[C@@H](NC(=O)[C@H](CC(C)C)NC(=O)[C@H](CC(=O)O)NC(C)=O)CSSC[C@@H](C(N)=O)NC(=O)[C@H](CC(C)C)NC(=O)[C@H]([C@@H](C)CC)NC(=O)C(C)(C)NC(=O)[C@@H]2CCCN2C(=O)[C@H](Cc2ccccc2)NC(=O)[C@H](Cc2ccc(O)cc2)NC1=O` [UPAR-440, Ac-Asp-Leu-[Cys-Arg-Nle-Tyr-Phe-Pro-Aib-Ile-Leu-Cys]-NH2] (Ac-DLCR[Nle]YFP[Aib]ILC-NH2; disulfide 3-12), the Kd on human uPAR (uPAR-Fc) (single cycle kinetics) was below 1.58 nM. This compound also gave a 50% inhibitory concentration (IC50) in test [1] of at most 10 nM.

As for “Pent-[Cys-Cit-Lys(InDOTA)-Tyr-Pcf-Pro-Hyp-Ile-Nva-Cys]-NH2 [UPAR-355]”, the “pKD CAT” value at human uPAR (uPAR-Fc) (single cycle kinetics) is “A (pKD values ≥ 8.8)”. In addition, the “pIC50 CAT” value in test [1] was “A (pIC50 values ≥8.0)”.

As for `CCC[C@@H]1NC(=O)[C@H]([C@@H](C)CC)NC(=O)[C@@H]2C[C@@H](O)CN2C(=O)[C@@H]2CCCN2C(=O)[C@H](Cc2ccccc2)NC(=O)[C@H](Cc2ccc(O)cc2)NC(=O)[C@H](CCC(N)=O)NC(=O)[C@H](CCCNC(=N)N)NC(=O)[C@@H](NC(=O)[C@H](CC(C)C)N(C)C(C)=O)CSSC[C@@H](C(N)=O)NC1=O` [UPAR-483, Ac-Nml-[Cys-Arg-Gln-Tyr-Phe-Pro-Hyp-Ile-Nva-Cys]-NH2] (Ac-[NMeL]CRQYFP[Hyp]I[Nva]C-NH2; disulfide 2-11), the Kd on human uPAR (uPAR-Fc) (single cycle kinetics) is below 1.58 nM. Besides, the IC50 in test [1] was at most 10 nM.

`CCCCCC(=O)N[C@@H](CO)C(=O)N[C@@H](CC(C)C)C(=O)N[C@H]1CSSC[C@@H](C(N)=O)NC(=O)[C@H](CC(C)C)NC(=O)[C@H]([C@@H](C)CC)NC(=O)[C@H](C)NC(=O)[C@@H]2CCCN2C(=O)[C@H](Cc2ccccc2)NC(=O)[C@H](Cc2ccccc2)NC(=O)[C@H](CCC(N)=O)NC(=O)[C@H](CC(=O)O)NC1=O` [UPAR-202, Hex-Ser-Leu-[Cys-Asp-Gln-Phe-Phe-Pro-Ala-Ile-Leu-Cys]-NH2] (Hexanoyl-SLCDQFFPAILC-NH2; disulfide 3-12): the Kd at human uPAR (uPAR-Fc) is below 1.58 nM. In test [1], this compound showed an IC50 of at most 10 nM.

Consider `CCCC[C@@H]1NC(=O)[C@H](CCCNC(=N)N)NC(=O)[C@@H](NC(=O)[C@H](CC(C)C)NC(=O)[C@H](CC(=O)O)NC(C)=O)CSSC[C@@H](C(N)=O)NC(=O)[C@H](CC(C)C)NC(=O)[C@H]([C@@H](C)CC)NC(=O)[C@H](C)NC(=O)[C@H]2CCCN2C(=O)[C@H](Cc2ccccc2)NC(=O)[C@H](Cc2ccc(O)cc2)NC1=O` [UPAR-218, Ac-Asp-Leu-[Cys-Arg-Nle-Tyr-Phe-pro-Ala-Ile-Leu-Cys]-NH2] (Ac-DLCR[Nle]YF[dP]AILC-NH2; disulfide 3-12), for which the Kd on human uPAR (uPAR-Fc) was above 100 nM. In test [1], this compound had an IC50 of at least 126 nM.

For `CC[C@H](C)[C@@H]1NC(=O)[C@@H](C)NC(=O)[C@@H]2C[C@@H](O)CN2C(=O)[C@H](Cc2ccccc2)NC(=O)[C@H](Cc2ccc(O)cc2)NC(=O)[C@H](CCC(N)=O)NC(=O)[C@H](CCCNC(N)=O)NC(=O)[C@@H](NC(=O)CCC(C)C)CSSC[C@@H](C(N)=O)NC(=O)[C@H](CC(C)C)NC1=O` [UPAR-439, iHex-[Cys-Cit-Gln-Tyr-Phe-Hyp-ala-Ile-Leu-Cys]-NH2] ({Pentanoyl(4-Me)}-C[Cit]QYF[Hyp][dA]ILC-NH2; disulfide 1-10), the Kd on human uPAR (uPAR-Fc) (single cycle kinetics) was 1.58 to 10 nM. Moreover, the concentration for half-maximal inhibition (IC50) in test [1] is at most 10 nM.

As for `CCCCC(=O)N[C@H]1CSSC[C@@H](C(N)=O)NC(=O)[C@H](CCC)NC(=O)[C@H]([C@@H](C)CC)NC(=O)[C@@H]2C[C@@H](O)CN2C(=O)[C@H](CC2CCCCC2)NC(=O)[C@H](Cc2ccccc2)NC(=O)[C@H](Cc2ccc(O)cc2)NC(=O)[C@H](CCC(N)=O)NC(=O)[C@H](CCCNC(=N)N)NC1=O` [UPAR-266, Pent-[Cys-Arg-Gln-Tyr-Phe-Cha-Hyp-Ile-Nva-Cys]-NH2] (Pentanoyl-CRQYF[Cha][Hyp]I[Nva]C-NH2; disulfide 1-10), at human uPAR (uPAR-Fc), the Kd was below 1.58 nM. This compound also had a concentration for half-maximal inhibition (IC50) in test [1] of at most 10 nM.

The values are drawn from EP4610269A1, “UROKINASE PLASMINOGEN ACTIVATOR SURFACE RECEPTOR (UPAR) LIGANDS FOR DIAGNOSTIC OR THERAPEUTIC USE” (3B Pharmaceuticals GmbH, priority 2024, dated 2025).
